From PubChem BioAssay AID743123 (Broad Institute, 2013)
Several values for one entry are separate records, joined by “and”; a condition that tells them apart may be missing. Equal entries are not always repeated. Inconclusive results are not listed. Activity calls are given as the source filed them.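 The calls were made as follows: active = inhibition with a half-effect concentration no higher than twice the top valid dose tested; inconclusive = flat fit inhibiting 30 to 70%, or a poor fit; inactive = effect in the wrong direction, plus the rest.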

Tested on: not listed separately
Assay: antifungal activity under osmotic support – alamar blue, sorbitol added, dry powder, counter-screen for C. neoformans cell wall antifungals, dose response (AID 743123)
Settings: C. neoformans, alamar blue, sorbitol counter-screen, 24 h; at 35 µM (top of the series)

SMILES | activity change, negative = inhibition
Cc1cccc(OCCn2c(=S)[nH]c3cc(C(F)(F)F)ccc32)c1 | -32% (inactive)
CCOC(=O)c1c(-c2ccc(F)cc2)csc1NC(=O)CN1CCN(C)CC1 | -15.2% (inactive)
Cc1ccc(OCCn2c(C)nc3ccccc32)cc1 | -59.3% (inactive)
O=c1[nH]c2ccccc2n1CCOc1ccccc1 | -36.6% (inactive)
c1ccc(OCCn2cnc3ccccc32)cc1 | -38.4% (inactive)

Tested on: C. neoformans, alamar blue, sorbitol counter-screen, 24 h
Assay: as above
Settings: not given

SMILES | AC50
CCOC(=O)c1c(-c2ccc(OC)cc2)csc1NC(=O)CN(C)CC(=O)N(C)C | 13.9 µM
S=c1[nH]c2ccccc2n1CCOc1ccc(Cl)cc1 | 14.7 µM
Cc1ccc2c(c1)[nH]c(=S)n2CCOc1ccccc1 | 27.1 µM
S=c1[nH]c2ccccc2n1CCOc1ccccc1 | 28.5 µM
Fc1ccccc1OCCn1c(=S)[nH]c2ccccc21 | 36.2 µM
COC(=O)C1=C(C)N(Cc2ccc(Br)cc2)C(=S)NC1c1ccc(F)cc1 (stereo not given) | 5.99 µM
Cc1ccccc1OCCn1c(=S)[nH]c2ccccc21 | 9.99 µM
COC(=O)C1=C(C)N(Cc2ccc(F)cc2)C(=S)NC1c1cccc(F)c1 (stereo not given) | 24.2 µM
CCOc1ccc(OCCn2c(=S)[nH]c3ccccc32)cc1 | 24.1 µM
CCOC(=O)c1c(-c2ccc(C(C)(C)C)cc2)csc1NC(=O)CN1CCN(C)CC1 | 13.7 µM
CCOC(=O)c1c(NC(=O)CN2CCN(C)CC2)sc(C)c1-c1ccc(C)cc1 | 16.9 µM
COC(=O)C1=C(C)N(Cc2ccc(Cl)cc2)C(=S)NC1c1ccc(Br)cc1 (stereo not given) | 3.11 µM
Cc1ccc(OCCn2c(=S)[nH]c3ccccc32)cc1 | 10.9 µM
CCOC(=O)c1c(-c2ccc(F)cc2)csc1NC(=O)CN1CCN(CC)CC1 | 36.1 µM
Cc1ccc(OCCn2cnc3ccccc32)cc1 | 7.76 µM
S=c1[nH]c2cccc(Cl)c2n1CCOc1ccccc1 | 11.6 µM
CCOC(=O)c1c(-c2ccc(-c3ccccc3)cc2)csc1NC(=O)CNCCN(C)C | 19.9 µM
CCOC(=O)c1c(NC(=O)CNCCN(C)C)sc(C)c1-c1ccccc1 | 1.09 µM
CCOC(=O)c1c(-c2ccc(C(C)(C)C)cc2)csc1NC(=O)CN1CCN(CC)CC1 | 14.6 µM
Cc1ccc(OCCn2c(SCCO)nc3ccccc32)c(C(C)C)c1 | 7.62 µM
Cc1ccc(C(C)C)c(OCCn2c(=S)[nH]c3ccccc32)c1 | 10.1 µM
Fc1cccc2c1[nH]c(=S)n2CCOc1ccccc1 | 31.9 µM
COC(=O)C1=C(C)N(Cc2ccc(Br)cc2)C(=S)NC1c1ccc(OC)cc1 (stereo not given) | 23.9 µM
COC(=O)C1=C(C)N(Cc2ccccc2)C(=S)NC1c1ccc(Br)cc1 (stereo not given) | 9.1 µM
Cc1ccc(OCCn2c(=S)[nH]c3ccccc32)c(C(C)C)c1 | 8.54 µM and 9.18 µM
